According to patent publication US9839632B2, “Methods and compositions using 4-amino-2-(2,6-dioxo-piperidine-3-yl)-isoindoline-1,3-dione for treatment and management of central nervous system cancers” (CELGENE CORPORATION, priority 2013, dated 2017):

Experiments:
[1] = system: U937 cells cocultured with OCI-LY10 lymphoma cells; assay: Polarization of U937 cocultured with OCI-LY10 lymphoma cells with or without YTS NK cells; type: cell-based, human; details: for M2 polarization of U937 cells (FXIIIA, pSTAT6): coculture with OCI-LY10 lymphoma cells, without NK cells; for polarization status of U937 cells (iNOS, pSTAT1): triple culture with OCI-LY10 lymphoma cells and YTS NK cells, 10 ug/ml 48 hours
Method: Raji lymphoma cells (ATCC), U937 human monocyte cells (ATCC) and YTS NK cells (a gift from Dr. Pamela A. Becker) were cultured at 37° C. in a humidified incubator under 5% CO2 and 95% air in RPMI-1640 supplemented with 20% FCS and 1% penicillin-streptomycin, and 1% nonessential amino acids.
OCI-LY10 lymphoma cells (a gift from Arthur L. Shaffer III) were cultured at 37° C. in a humidified incubator under 5% CO2 and 95% air in IMDM supplemented with 20% FCS and 1% penicillin-streptomycin. Co-culture of lymphoma cells and U937 monocytes: Raji and U937 monocytes were cultured at 37° C. in a humidified incubator under 5% CO2 and 95% air in RPMI-1640 supplemented with 20% FCS and 1% penicillin-streptomycin, and 1% nonessential amino acids. OCI-LY10 and U937 monocytes were cultured at 37° C. in a humidified incubator under 5% CO2 and 95% air in IMDM supplemented with 20% FCS and 1% penicillin-streptomycin. Triple culture of lymphoma cells, U937 monocytes and YTS cells: Raji, U937 and YTS cells were cultured at 37° C. in a humidified incubator under 5% CO2 and 95% air in RPMI-1640 supplemented with 20% FCS and 1% penicillin-streptomycin, and 1% nonessential amino acids. OCI-LY10, U937 and YTS were cultured at 37° C. in a humidified incubator under 5% CO2 and 95% air in IMDM supplemented with 20% FCS and 1% penicillin-streptomycin.
Treatments: In experiments in which IL-4 was used to induce M2 polarization of macrophages, cells were treated with IL-4 (20 ng/ml) for 48 hours followed by treatment with 4-amino-2-(2,6-dioxo-piperidine-3-yl)-isoindoline-1,3-dione (10 ug/ml) or DMSO control for 48 hours. In triple cell culture experiments with lymphoma cells, macrophages, and NK cells, the treatment was with either DMSO or 4-amino-2-(2,6-dioxo-piperidine-3-yl)-isoindoline-1,3-dione (10 ug/ml) for 48 hours.
Immunofluorescence for analysis of macrophage polarization in cell culture experiments: Live cells were fixed in 10% formalin for 30 minutes at room temperature followed by permeabilization with PBS-0.2% Triton X-100 for 2 min. After blocking with PBS-5% goat serum-0.02% Triton X-100 for 30 minutes at 37° C., the cells were incubated overnight at 4° C. with rat monoclonal F4/80 antibody (for primary microglia cells, 1:200 Abcam), rat monoclonal CD11b (for U937, 1:200 Biolegend), rabbit polyclonal Ym1 antibody (for primary microglia cells and primary peritoneal macrophages, 1:200, Stemcell Technologies, Vancouver, Canada), rabbit polyclonal FXIII A antibody (for U937, 1:200, Abcam), mouse monoclonal p-STAT1 antibody (1:200, Abcam), rabbit polyclonal p-STAT6 antibody (1:200, Abcam) or rabbit iNOS antibody (1:200, Calbiochem). […]

[2] = system: macrophages and NK cells in the CNS lymphoma microenvironment; assay: Immunohistochemistry/immunofluorescence of CNS lymphoma microenvironment, Raji model; type: in vivo, athymic mice; details: P<0.05 vs control
Excerpt: Immunohistochemistry (“IHC”) assessment for macrophages: Paraffin sections (10 μm thick) were fixed, blocked, and immunostained with the appropriate antibody: Iba-1 (BD Biosciences) for macrophages, Ym1 (Stemcell Technologies) as a marker for M2 polarization, iNOS (Calbiochem) as a marker for M1 polarization. Aperio ScanScope XT slide scanner and image analysis system (Aperio Spectrum, Vista, Calif.) were used for quantitative assessment of macrophages. Three equal-size (0.4 mM2) fields in macrophage-dense areas were selected in the contralateral brain and the tumor for counting. Data were shown as an average of the three fields.
Immunofluorescence for natural killer cells: Frozen sections (10 μm thick) were permeabilized with PBS-0.2% Triton X-100 for 5 min. After blocking with PBS-5% goat serum-0.02% Triton X-100 for 45 mins at 37° C., the sections were incubated overnight at 4° C. with Rat monoclonal CD335 antibody (a marker for NK cells, 1:200, Biolegend). After washing, sections were incubated with the Alexa Fluor 594 Goat anti-Rat IgG secondary antibody (1:1000, Life Technologies) at 37° C. for 1.5 h. Finally, Vectashield H-1200 mounting medium with DAPI (Vector Laboratories) was used to stain the nuclei. Images were obtained on a Zeiss LSM 510 META confocal microscope. Six equal-size (0.2 mM^2) fields in NK-dense areas were selected in the tumor for taking pictures. Fluorescence intensity data were generated by Zeiss LSM 510 and shown as an average of six fields.
Statistical analysis: One-way ANOVA was used to compare the difference between the groups at each time point. Two-way repeated measures ANOVA was used to analyze the interaction between the time and treatment. Survival analysis was performed by Kaplan Meier method. Kaplan Meier survival curves were generated using Prism4 software and the statistical difference between curves was derived with a log-rank test. P<0.05 was considered significant.

[3] = listed as 4-amino-2-(2,6-dioxo-piperidine-3-yl)-isoindoline-1,3-dione

**Q.** Nc1cccc2c1C(=O)N(C1CCC(=O)NC1=O)C2=O (centres unmarked) [Pomalidomide, 4-amino-2-(2,6-dioxo-piperidine-3-yl)-isoindoline-1,3-dione] was tested. Which “M2 polarization of U937 cells (FXIIIA, pSTAT6)” value [1] did it give?
**A.** Its value is “reversed”.

**Q.** And the “M2 polarization of U937 cells (FXIIIA, pSTAT6)” value [1, 3]?
**A.** The value was “prevented the M2 polarization of macrophages but did not induce them into M1 polarization”.

**Q.** And the “polarization status of U937 cells (iNOS, pSTAT1)” value [1]?
**A.** The value was “from M2 to M1”.

**Q.** What about the “polarization status of U937 cells (iNOS, pSTAT1)” value [1, 3] of the same compound?
**A.** Its value is “became M1-polarized”.

**Q.** And the “CD335 positive NK cells in CNS tumors” value [2]?
**A.** Its value is “significantly increased”.

**Q.** What about the “Ym1-expressing cells (M2-polarized macrophages) in tumor” value [2] of the same compound?
**A.** The value was “significantly decreased”.

**Q.** What about the “iNOS-expressing cells (M1-polarized macrophages) in tumor” value [2] of the same compound?
**A.** The value was “increased”.

**Q.** What about the “CD335 positive NK cells in CNS tumors” value [2, 3] of the same compound?
**A.** Its value is “significant increase”.

**Q.** What about the “Ym1-expressing cells (M2-polarized macrophages) in tumor” value [2, 3] of the same compound?
**A.** The value was “significant decrease”.

**Q.** And the “iNOS-expressing cells (M1-polarized macrophages) in tumor” value [2, 3]?
**A.** Its value is “significant increase”.

**Q.** And the “brain macrophages (Iba-1 positive cells)” value ([2]; contralateral brain and tumor)?
**A.** The value was “significantly increased”.
